Source: patent publication US4120954A, “2,2',2"-[S-Phenenyltris(carbonylimino) ]tris-2-deoxy-D-glucopyranose and salts thereof” (American Cyanamid Company, priority 1977, dated 1978)

Test system: shunt pathway
Test: Test Code 036 (C-Shunt inhibitor): lysis of fragile human erythrocytes in autologous serum via shunt pathway activated by cobra venom factor
Type: cell-based
Conditions: appropriate dilutions of test compound
Description: An active inhibitor protects C2 from C1 and C4; (ii) Test, Code 035 (c3-C9 inhibitor) -- This test determines the ability of the late components of human complement (C3-C9) to lyse EAC 142 in the presence of appropriate dilutions of the test compound. An active inhibitor protects EAC 142 from lysis by human C3-C9; (iii) Test, Code 036 (C-Shunt inhibitor) -- In this test human erythrocytes rendered fragile are lysed in autologous serum via the shunt pathway activated by cobra venom factor in the presence of appropriate dilutions of the test compound. Inhibition of the shunt pathway results in failure of lysis; (iv) Forssman Vasculitis Test -- Here, the well known complement dependent lesion, Forssman vasculitis, is produced in guinea pigs by intradermal injection of rabbit anti-Forssman antiserum. […]

Question: For O=C(N[C@H]1C(OS(=O)(=O)O)O[C@H](COS(=O)(=O)O)[C@@H](OS(=O)(=O)O)[C@@H]1OS(=O)(=O)O)c1cc(C(=O)N[C@H]2C(OS(=O)(=O)O)O[C@H](COS(=O)(=O)O)[C@@H](OS(=O)(=O)O)[C@@H]2OS(=O)(=O)O)cc(C(=O)N[C@H]2C(OS(=O)(=O)O)O[C@H](COS(=O)(=O)O)[C@@H](OS(=O)(=O)O)[C@@H]2OS(=O)(=O)O)c1 (stereo partly drawn) [2,2',2"-[s-Phenenyltris(carbonylimino)]tris-2-deoxy-D-glucopyranose dodecakis (H-sulfate) dodecasalt with trimethylamine], which “Shunt Inhibition 036 Wells” value is on record?
Answer: The value was “+3 Wells”.
